Measurements as given in ChEMBL document CHEMBL4706609, “Development of triazolothiadiazine derivatives as highly potent tubulin polymerization inhibitors: Structure-activity relationship, in vitro and in vivo study” (Eur J Med Chem, 2020).
Active and inactive are the calls of the source. The calls are words filed in the database; no cut-off is given here.

Experiments:
[1] = Antitumor activity against human A549 cells xenografted in BALB/c mouse assessed as tumor volume at 60 mg/kg, ip measured for every 2 days upto 30 days (reference value: 652.13 mm^3); assay type: functional; settings: time 2 day
[2] = Antitumor activity against human A549 cells xenografted in BALB/c mouse assessed as tumor growth inhibition at 60 mg/kg, ip measured every 2 days upto 30 days relative to control; assay type: functional; design: scale not given: the % may be the effect or the level left; settings: time 30 day
HeLa = assay: Antiproliferative activity against human HeLa cells assessed as reduction in cell growth after 48 hrs by MTT assay; assay type: functional, cell-based
A549 [3] = assay: Induction of apoptosis in human A549 cells assessed as decrease in Bcl2 level upto 10 nM incubated for 24 hrs by Western blot analysis; assay type: functional, cell-based; settings: dose nM <=10, time 24.0 hrs
[4] = Toxicity in BALB/c mouse xenografted with human A549 cells assessed as change in body weight at 60 mg/kg, ip measured after 30 days; assay type: organism-based; settings: in vivo, 720 h, time 30 day
A549 [5] = assay: Induction of apoptosis in human A549 cells assessed as viable cells at 2.5 nM measured after 24 hrs by Annexin V-FITC/propidium iodide staining based flow cytometry (reference value: 95.3%); assay type: functional; settings: read-out: Activity
A549 [6] = assay: Induction of cell cycle arrest in human A549 cells assessed as inhibition of p-cdc2/cyclin B1 activity incubated for 24 hrs by Western blot analysis; assay type: functional, cell-based
[7] = Antitumor activity against human A549 cells xenografted in BALB/c mouse assessed as tumor volume at 15 mg/kg, ip measured for every 2 days upto 30 days (reference value: 652.13 mm^3); assay type: functional; settings: time 2 day
A549 [8] = assay: Induction of apoptosis in human A549 cells assessed as apoptotic cells upto 10 nM measured after 24 hrs by Annexin V-FITC/propidium iodide staining based flow cytometry; assay type: functional, cell-based; settings: dose nM <=10, time 24.0 hrs
A549 [9] = assay: Induction of apoptosis in human A549 cells assessed as late apoptotic cells at 10 nM measured after 24 hrs by Annexin V-FITC/propidium iodide staining based flow cytometry (reference value: 1.51%); assay type: functional
[10] = Antitumor activity against human A549 cells xenografted in BALB/c mouse assessed as tumor weight at 60 mg/kg, ip measured every 2 days upto 30 days (reference value: 0.563 g); assay type: functional; settings: time 2 day
HEK293 = assay: Cytotoxicity against HEK293 cells assessed as reduction in cell growth after 48 hrs by MTT assay; assay type: cell-based; settings: Homo sapiens, HEK293, 48 h
A2780 = assay: Antiproliferative activity against paclitaxel-resistant human A2780 cells assessed as reduction in cell growth after 48 hrs by MTT assay; assay type: functional, cell-based; settings: A2780, 48 h
MCF7 = assay: Antiproliferative activity against human MCF7 cells assessed as reduction in cell growth after 48 hrs by MTT assay; assay type: functional, cell-based; settings: MCF7, 48 h
A549 [11] = assay: Induction of apoptosis in human A549 cells assessed as late apoptotic cells at 2.5 nM measured after 24 hrs by Annexin V-FITC/propidium iodide staining based flow cytometry (reference value: 1.51%); assay type: functional
[12] = Antitumor activity against human A549 cells xenografted in BALB/c mouse assessed as tumor growth inhibition at 15 mg/kg, ip measured every 2 days upto 30 days relative to control; assay type: functional; design: scale not given: the % may be the effect or the level left; settings: time 30 day
A549 [13] = assay: Induction of apoptosis in human A549 cells assessed as early apoptotic cells at 2.5 nM measured after 24 hrs by Annexin V-FITC/propidium iodide staining based flow cytometry (reference value: 2.72%); assay type: functional
A549 [14] = assay: Induction of cell cycle arrest in human A549 cells assessed as accumulation at G2/M phase at 20 nM incubated for 24 hrs by flow cytometry relative to control; assay type: functional
A549 [15] = assay: Antiproliferative activity against cisplatin resistant human A549 cells assessed as reduction in cell growth after 48 hrs by MTT assay; assay type: functional, cell-based; settings: A549, 48 h
HT-29 = assay: Antiproliferative activity against human HT-29 cells assessed as reduction in cell growth after 48 hrs by MTT assay; assay type: functional, cell-based; settings: HT-29, 48 h
[16] = (§1) Inhibition of porcine brain tubulin polymerization measured for 20 mins by spectrometric assay; assay type: tissue-based, Sus scrofa
Sus scrofa = species on record: Sus scrofa; assay: as §1; assay type: tissue-based
[17] = Antitumor activity against human A549 cells xenografted in BALB/c mouse assessed as tumor weight at 15 mg/kg, ip measured every 2 days upto 30 days (reference value: 0.563 g); assay type: functional; settings: time 2 day
A549 [18] = assay: Induction of cell cycle arrest in human A549 cells assessed as increase in p-cdc2 expression upto 10 nM incubated for 24 hrs by Western blot analysis; assay type: functional, cell-based; settings: dose nM <=10, time 24.0 hrs
A549 [19] = assay: Induction of apoptosis in human A549 cells assessed as late apoptotic cells at 5 nM measured after 24 hrs by Annexin V-FITC/propidium iodide staining based flow cytometry (reference value: 1.51%); assay type: functional
[20] = Antitumor activity against human A549 cells xenografted in BALB/c mouse assessed as tumor weight at 8 mg/kg, ip measured every 2 days for every 2 days upto 30 days (reference value: 0.563 g); assay type: functional; settings: time 2 day
A549 [21] = assay: Induction of apoptosis in human A549 cells assessed as increase in cleaved caspase-3 level incubated for 24 hrs by Western blot analysis; assay type: functional, cell-based; settings: dose nM <=10, time 24.0 hrs
A549 [22] = assay: Induction of apoptosis in human A549 cells assessed as viable cells at 10 nM measured after 24 hrs by Annexin V-FITC/propidium iodide staining based flow cytometry (reference value: 95.3%); assay type: functional; settings: read-out: Activity
A549 [23] = assay: Induction of apoptosis in human A549 cells assessed as early apoptotic cells at 10 nM measured after 24 hrs by Annexin V-FITC/propidium iodide staining based flow cytometry (reference value: 2.72%); assay type: functional
A549 [24] = assay: Induction of apoptosis in human A549 cells assessed as increase in cleaved PARP level incubated for 24 hrs by Western blot analysis; assay type: functional, cell-based; settings: dose nM <=10, time 24.0 hrs
[25] = Antitumor activity against human A549 cells xenografted in BALB/c mouse assessed as tumor volume at 8 mg/kg, ip measured for every 2 days upto 30 days (reference value: 652.13 mm^3); assay type: functional; settings: time 2 day
[26] = Toxicity in BALB/c mouse xenografted with human A549 cells assessed as change in body weight at 15 mg/kg, ip measured after 30 days; assay type: organism-based; settings: in vivo, 720 h, time 30 day
A549 [27] = assay: Induction of apoptosis in human A549 cells assessed as necrotic cells at 10 nM measured after 24 hrs by Annexin V-FITC/propidium iodide staining based flow cytometry (reference value: 0.508%); assay type: functional
A549 [28] = assay: Induction of apoptosis in human A549 cells assessed as viable cells at 5 nM measured after 24 hrs by Annexin V-FITC/propidium iodide staining based flow cytometry (reference value: 95.3%); assay type: functional; settings: read-out: Activity
A549 [29] = assay: Antiproliferative activity against human A549 cells assessed as reduction in cell growth after 48 hrs by MTT assay; assay type: functional, cell-based; settings: A549, 48 h
A549 [30] = assay: Induction of apoptosis in human A549 cells assessed as necrotic cells at 5 nM measured after 24 hrs by Annexin V-FITC/propidium iodide staining based flow cytometry (reference value: 0.508%); assay type: functional
A549 [31] = assay: Induction of apoptosis in human A549 cells assessed as early apoptotic cells at 5 nM measured after 24 hrs by Annexin V-FITC/propidium iodide staining based flow cytometry (reference value: 2.72%); assay type: functional
[32] = Antitumor activity against human A549 cells xenografted in BALB/c mouse assessed as tumor growth inhibition at 8 mg/kg, ip measured every 2 days for every 2 days upto 30 days relative to control; assay type: functional; design: scale not given: the % may be the effect or the level left; settings: time 2 day
A549 [33] = assay: Induction of apoptosis in human A549 cells assessed as necrotic cells at 2.5 nM measured after 24 hrs by Annexin V-FITC/propidium iodide staining based flow cytometry (reference value: 0.508%); assay type: functional
Tubulin = assay: Inhibition of tubulin polymerization in human A549 cells assessed as disruption of microtubule organization at 50 nM incubated for 6 hrs by immunofluorescent staining; assay type: cell-based
A549 [34] = assay: Induction of cell cycle arrest in human A549 cells assessed as accumulation at G2/M phase upto 20 nM incubated for 24 hrs by flow cytometry; assay type: functional, cell-based; settings: dose nM <=20, time 24.0 hrs

Q: For `COc1cc(-c2nnc3n2N=C(c2ccc(C)cc2)CS3)cc(OC)c1OC`, which Activity [1] is on record?
A: 354.12 mm3

Q: What about the Activity [2] of the same compound?
A: 44.4%

Q: And the IC50 (HeLa)?
A: 4 nM

Q: And the Activity (A549 [3])?
A: Active

Q: And the Activity [4]?
A: Non-Toxic

Q: What about the viability at 0.0025 µM (A549 [5]) of the same compound?
A: 88.8%

Q: And the Activity (A549 [6])?
A: Active

Q: And the Activity [7]?
A: 449.88 mm3

Q: What about the Activity (A549 [8]) of the same compound?
A: Dose-dependent effect

Q: And the Activity (A549 [9])?
A: 13.1%

Q: And the Activity [10]?
A: 0.313 g

Q: And the IC50 (HEK293)?
A: > 100000 nM

Q: What about the IC50 (A2780) of the same compound?
A: 18800 nM

Q: What about the IC50 (MCF7) of the same compound?
A: 98 nM

Q: What about the Activity (A549 [11]) of the same compound?
A: 5.36%

Q: And the Activity [12]?
A: 29.5%

Q: What about the Activity (A549 [13]) of the same compound?
A: 5.36%

Q: And the Activity (A549 [14])?
A: 91.56%

Q: And the IC50 (A549 [15])?
A: 3950 nM

Q: What about the IC50 (HT-29) of the same compound?
A: 23 nM

Q: And the IC50 [16]?
A: 1690 nM

Q: What about the inhibition (Sus scrofa) of the same compound?
A: Dose-dependent effect

Q: What about the Activity [17] of the same compound?
A: 0.397 g

Q: And the Activity (A549 [18])?
A: Dose-dependent effect

Q: What about the Activity (A549 [19]) of the same compound?
A: 9.97%

Q: What about the Activity [20] of the same compound?
A: 0.234 g

Q: What about the Activity (A549 [21]) of the same compound?
A: Dose-dependent effect

Q: And the viability at 0.01 µM (A549 [22])?
A: 77.6%

Q: What about the Activity (A549 [23]) of the same compound?
A: 8.66%

Q: And the Activity (A549 [24])?
A: Dose-dependent effect

Q: What about the Activity [25] of the same compound?
A: 264 mm3

Q: And the Activity [26]?
A: Non-Toxic

Q: What about the Activity (A549 [27]) of the same compound?
A: 0.666%

Q: And the viability at 0.005 µM (A549 [28])?
A: 82.8%

Q: And the IC50 (A549 [29])?
A: 50 nM

Q: What about the Activity (A549 [30]) of the same compound?
A: 0.694%

Q: And the Activity (A549 [31])?
A: 6.58%

Q: And the Activity [32]?
A: 58.4%

Q: And the Activity (A549 [33])?
A: 0.529%

Q: And the IC50 (Tubulin)?
A: Active

Q: What about the Activity (A549 [34]) of the same compound?
A: Dose-dependent effect
